According to patent US9981960B2, “Pyrrolidine compound and application as melanocortin receptor agonist” (MITSUBISHI TANABE PHARMA CORPORATION, priority 2014, dated 2018):

Tests used:
[1] = biological target: human MC4R (Homo sapiens, UniProt P32245); experiment: human MC4R agonist activity; type: cell-based
[2] = biological target: T1, Human MC1R (Homo sapiens, UniProt Q01726); experiment: MCR agonist measurement (cAMP measurement), human MC1R agonist activity in human melanoma cell line HBL; type: cell-based; conditions: HBL cells; for EC50: 37° C. for 30 minutes, intracellular cAMP by fluorescence method; for Human MC1R IA %: Intrinsic Activity, vehicle cAMP = 0%, αMSH at 10^-6 M = 100%
T1 construct: endogenous in cells; host or cells: human melanoma cell line HBL
Experimental: (1) Method for Culturing Cells
Human MC1R agonist activity measurement was carried out by using human melanoma cell line HBL. Culture of HBL: F-10 Nutrient Mixture containing 10% FCS and Penicillin-streptomycin was used in the culture.
(2) cAMP Assay and Data Calculation
Each compound solution having each concentration was mixed with cAMP assay buffer (HBSS (Hank's Balanced Salt Solution) containing 10 mM HEPES and 0.1% BSA), and dispensed into 96 well plate. HBL was suspended in cAMP assay buffer containing 0.5 mM IBMX so that the concentrate became 5×10^4/mL, dispensed into the above 96 well plate, then mixed, left to stand at 37° C. for 30 minutes, and then the intracellular […] concentration was measured by fluorescence method using Envision (ex. 320 nm, em. 590 nm and 665 nm).

T1 sequence (Q01726 whole entry): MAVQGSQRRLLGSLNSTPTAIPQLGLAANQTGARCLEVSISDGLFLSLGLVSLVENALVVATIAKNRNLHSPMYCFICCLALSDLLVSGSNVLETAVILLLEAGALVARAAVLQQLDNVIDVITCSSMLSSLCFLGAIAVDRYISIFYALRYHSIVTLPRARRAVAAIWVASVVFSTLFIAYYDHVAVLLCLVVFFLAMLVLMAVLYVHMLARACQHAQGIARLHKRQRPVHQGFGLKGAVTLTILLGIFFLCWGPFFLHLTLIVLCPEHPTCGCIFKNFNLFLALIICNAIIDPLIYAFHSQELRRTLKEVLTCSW
Chain of human MC4R (P32245 whole entry): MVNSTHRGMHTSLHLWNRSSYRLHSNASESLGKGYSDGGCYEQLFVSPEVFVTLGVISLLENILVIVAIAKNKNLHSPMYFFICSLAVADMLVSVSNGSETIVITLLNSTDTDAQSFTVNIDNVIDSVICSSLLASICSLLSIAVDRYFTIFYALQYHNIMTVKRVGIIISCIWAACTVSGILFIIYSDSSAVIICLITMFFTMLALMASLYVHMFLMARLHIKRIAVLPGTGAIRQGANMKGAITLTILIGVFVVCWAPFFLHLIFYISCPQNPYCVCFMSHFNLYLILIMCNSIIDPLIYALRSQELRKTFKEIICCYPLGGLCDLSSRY

EC50 [1] [nM]	EC50 [2] [nM]	Human MC1R IA % [2] [%]	Compound
	124	55	COc1ccc([C@@H]2CN(C3CCOC3)C[C@@]2(F)C(=O)N2CCC(c3ccc(C(F)(F)F)cc3N3CCC(C(=O)O)CC3)CC2)cc1 (stereo partly drawn) [Example 289]
	115	69	COc1ccc([C@@H]2CN(C3CCOC3)C[C@@]2(F)C(=O)N2CCC(c3ccc(C(F)(F)F)cc3N3CCC(C(=O)O)CC3)CC2)cc1 (stereo partly drawn) [Example 290]
	31	91	COc1ccc([C@@H]2CN(C(C)(C)C)C[C@@]2(F)C(=O)N2CCC(c3ccc(C(F)(F)F)cc3OCCCc3noc(=O)[nH]3)CC2)cc1.Cl [Example 295, 3-{3-[2-(1-{[(3R,4R)-1-tert-butyl-3-fluoro-4-(4-methoxyphenyl)pyrrolidin-3-yl]carbonyl}piperidin-4-yl)-5-(trifluoromethyl)phenoxy]propyl}-1,2,4-oxadiazole-5(4H)-one hydrochloride]
	0.7	83	COc1ccc([C@@H]2CN(C3CCCC3)C[C@@]2(F)C(=O)N2C[C@H](c3ccc(C(F)(F)F)cc3N3CCC(C(=O)O)CC3)C[C@H]2CF)cc1 [Example 299]
		93	COc1ccc([C@@H]2CN(C3CCCC3)C[C@@]2(F)C(=O)N2C[C@H](c3ccc(C(F)(F)F)cc3N3CCC(C(=O)O)CC3)C[C@H]2CC#N)cc1 [Example 300]
	8.7	89	COc1ccc([C@@H]2CN(CCCC(=O)N(C)C)C[C@@]2(F)C(=O)N2CCC(c3ccc(C(F)(F)F)cc3N3CCC(C(=O)O)CC3)CC2)cc1 [Example 304]
	6.8	96	COC[C@H]1CN(C(=O)[C@]2(F)CN(CC(=O)N3CCCCC3)C[C@H]2c2ccc(OC)cc2)C[C@@H]1c1ccc(C(F)(F)F)cc1N1CCC(C(=O)O)CC1 [Example 306]
	30	79	COc1ccc([C@@H]2CN(C(C)(C)CO)C[C@@]2(F)C(=O)N2CCC(c3ccc(C(F)(F)F)cc3N3CCC(C(=O)O)CC3)CC2)cc1 [Example 320]
	23	67	CCC(=O)N1CCC(N2C[C@@H](c3ccc(OC)cc3)[C@](F)(C(=O)N3C[C@H](COC)[C@@H](c4ccc(C(F)(F)F)cc4N4CCC(C(=O)O)CC4)C3)C2)CC1 [Example 327]

The next lines start with the compound.

Compound	EC50 [1] [nM]	EC50 [2] [nM]	Human MC1R IA % [2] [%]
COC[C@@H]1C[C@@H](c2ccc(F)cc2N2CCC(C(=O)O)CC2)CN1C(=O)[C@]1(F)CN([C@H]2CC[C@H](OC)CC2)C[C@H]1c1ccc(OC)cc1.Cl.Cl [Example 147, 1-{5-fluoro-2-[(3S,5S)-1-{[(3R,4R)-3-fluoro-1-(trans-4-methoxycyclohexyl)-4-(4-methoxyphenyl)pyrrolidin-3-yl]carbonyl}-5-(methoxymethyl)pyrrolidin-3-yl]phenyl}piperidine-4-carboxylic acid dihydrochloride]	341	1.7	102
COc1ccc([C@@H]2CN(C(C)(C)C)C[C@@]2(F)C(=O)N2CCC(c3ccc(C(F)(F)F)cc3OCCCC(=O)NS(=O)(=O)N(C)C)CC2)cc1.Cl [Example 272, 4-[2-(1-{[(3R,4R)-1-tert-butyl-3-fluoro-4-(4-methoxyphenyl)pyrrolidin-3-yl]carbonyl}piperidin-4-yl)-5-(trifluoromethyl)phenoxy]-N-(dimethylsulfamoyl)butanamide hydrochloride]		18	91
COc1ccc([C@@H]2CN(C(C)(C)C)C[C@@]2(F)C(=O)N2CCC(c3ccc(C(F)(F)F)cc3OCCCC(=O)NS(C)(=O)=O)CC2)cc1 [Example 273]		13	79
COc1ccc([C@@H]2CN(C(C)(C)C)C[C@@]2(F)C(=O)N2CCC(c3ccc(C(F)(F)F)cc3N3CCC(C(=O)NS(C)(=O)=O)CC3)CC2)cc1 [Example 274]		7.5	89
COC[C@H]1CN(C(=O)[C@]2(F)CN(C3CCOCC3)C[C@H]2c2ccc(OC)cc2)C[C@@H]1c1ccc(C(F)(F)F)cc1N1CCC(C#N)CC1.Cl.Cl [Example 278, 1-{2-[(3S,4R)-1-{[(3R,4R)-3-fluoro-4-(4-methoxyphenyl)-1-(tetrahydro-2H-pyran-4-yl)pyrrolidin-3-yl]carbonyl}-4-(methoxymethyl)pyrrolidin-3-yl]-5-(trifluoromethyl)phenyl}piperidine-4-carbonitrile dihydrochloride]		39	46
COC[C@H]1CN(C(=O)[C@]2(F)CN(C3CCOCC3)C[C@H]2c2ccc(OC)cc2)C[C@@H]1c1ccc(C(F)(F)F)cc1N1CCC(c2nnn[nH]2)CC1.Cl.Cl [Example 279, [(3R,4R)-3-fluoro-4-(4-methoxyphenyl)-1-(tetrahydro-2H-pyran-4-yl)pyrrolidin-3-yl][(3R,4S)-3-(methoxymethyl)-4-{2-[4-(1H-tetrazol-5-yl)piperidin-1-yl]-4-(trifluoromethyl)phenyl}pyrrolidin-1-yl]methanone dihydrochloride]		59	90
COc1ccc([C@@H]2CN(C(C)(C)C)C[C@@]2(F)C(=O)N2CCC(c3ccc(C(F)(F)F)cc3OCCCc3nnn[nH]3)CC2)cc1.Cl [Example 280, [(3R,4R)-1-tert-butyl-3-fluoro-4-(4-methoxyphenyl)pyrrolidin-3-yl](4-{2-[3-(1H-tetrazol-5-yl)propoxy]-4-(trifluoromethyl)phenyl}piperidin-1-yl)methanone hydrochloride]		42	86
COc1ccc([C@@H]2CN(C(C)(C)C)C[C@@]2(F)C(=O)N2CCC(c3ccc(C(F)(F)F)cc3N3CCNCC3)CC2)cc1 [Example 281, [(3R,4R)-1-tert-butyl-3-fluoro-4-(4-methoxyphenyl)pyrrolidin-3-yl]{4-[2-(piperazin-1-yl)-4-(trifluoromethyl)phenyl]piperidin-1-yl}methanone]		19	72
COc1ccc([C@@H]2CN(C(C)(C)C)C[C@@]2(F)C(=O)N2CCC(c3ccc(C(F)(F)F)cc3N3CCN(C(C)=O)CC3)CC2)cc1.Cl.Cl [Example 282, 1-{4-[2-(1-{[(3R,4R)-1-tert-butyl-3-fluoro-4-(4-methoxyphenyl)pyrrolidin-3-yl]carbonyl}piperidin-4-yl)-5-(trifluoromethyl)phenyl]piperazin-1-yl}ethanone dihydrochloride]		27	79
COc1ccc([C@@H]2CN(C(C)(C)C)C[C@@]2(F)C(=O)N2CCC(c3ccc(C(F)(F)F)cc3N3CCN(C(N)=O)CC3)CC2)cc1.Cl.Cl [Example 284, 4-[2-(1-{[(3R,4R)-1-tert-butyl-3-fluoro-4-(4-methoxyphenyl)pyrrolidin-3-yl]carbonyl}piperidin-4-yl)-5-(trifluoromethyl)phenyl]piperazine-1-carboxamide dihydrochloride]		14	81
COc1ccc([C@@H]2CN(C(C)(C)C)C[C@@]2(F)C(=O)N2CC[C@@H](c3ccc(C(F)(F)F)cc3N3CCC(C(=O)O)CC3)C2)cc1.Cl.Cl [Example 286a, 1-{2-[(3S)-1-{[(3R,4R)-1-tert-butyl-3-fluoro-4-(4-methoxyphenyl)pyrrolidin-3-yl]carbonyl}pyrrolidin-3-yl]-5-(trifluoromethyl)phenyl}piperidine-4-carboxylic acid dihydrochloride]		4.4	105
COc1ccc([C@@H]2CN(C(C)(C)C)C[C@@]2(F)C(=O)N2CC[C@H](c3ccc(C(F)(F)F)cc3N3CCC(C(=O)O)CC3)C2)cc1.Cl.Cl [Example 286b, 1-{2-[(3R)-1-{[(3R,4R)-1-tert-butyl-3-fluoro-4-(4-methoxyphenyl)pyrrolidin-3-yl]carbonyl}pyrrolidin-3-yl]-5-(trifluoromethyl)phenyl}piperidine-4-carboxylic acid dihydrochloride]		189	71
